Assays:
[1] = target: Calf DNA polymerase α (Bos taurus, UniProt A0AAA9THK8); test: DNA polymerase assay, calf pol α; format: biochemical
Source text: (§1) Pol α was purified from calf thymus by immuno-affinity column chromatography as described by Tamai et al.. Recombinant rat pol β was purified from E. coli JMpβ5 as described by Date et al.. The human pol γ catalytic gene was cloned into pFastBac. Histidine-tagged enzyme was expressed using the BAC-TO-BAC HT Baculovirus Expression System according to the supplier's manual (LIFE TECHNOLOGIES, MD, USA) and purified using ProBoundresin (Invitrogen Japan, Tokyo, Japan). Human pols δ and ε were purified by the nuclear fractionation of human peripheral blood cancer cells (Molt-4) using the second subunit of pols δ and ε-conjugated affinity column chromatography, respectively. Recombinant human pols η and ι tagged with His6 at their C-terminal were expressed in SF9 insect cells using the baculovirus expression system, and were purified as described previously. A truncated form of pol κ (i.e., hDINB1DC) with 6 x His-tags attached at the C-terminal was overproduced using the BAC-to-BAC Baculovirus Expression System kit (GIBCO BRL, MD, USA) and purified as described previously. Recombinant human His-pol λ was overexpressed and purified according to a method described previously. Fish pol δ was purified from the testis of cherry salmon (Oncorhynchus masou). Pol I (α-like) from a higher plant, cauliflower inflorescence, was purified according to the methods outlined by Sakaguchi et al.. The Klenow fragment of pol I from E. coli was purchased from Worthington Biochemical Corp. (Freehold, NJ, USA). Taq pol, T4 pol, T7 RNA polymerase and T4 polynucleotide kinase were purchased from Takara (Kyoto, Japan). Bovine pancreas deoxyribonuclease I (DNase I) was obtained from Stratagene Cloning Systems (La Jolla, CA, USA).
(§2) The reaction mixtures for pol α, pol β, fish pol δ, plant pol I (α-like) and prokaryotic pols were described previously, and those for pol γ, and pols δ and ε were as described by Umeda et al. and Ogawa et al., respectively. The reaction mixtures for pols η, ι and κ were the same as for pol α, and the reaction mixture for pol λ was the same as that for pol β.
For pols, poly(dA)/oligo(dT)12-18 (A/T = 2/1) and dTTP were used as the DNA template-primer and nucleotide (i.e., dNTP) substrate, respectively. KA-A analogues (i.e., compounds 1–12) were dissolved in distilled dimethyl sulfoxide (DMSO) at various concentrations and sonicated for 30 sec. Aliquots of 4 μL of sonicated samples were mixed with 16 μL of each enzyme (final amount 0.05 units) in 50 mM Tris-HCl (pH 7.5) containing 1 mM dithiothreitol, 50% glycerol and 0.1 mM EDTA, and kept at 0 °C for 10 min. […] Activity without the inhibitor was considered 100%, and the remaining activity at each concentration of the inhibitor was determined relative to this value. […]

[2] = target: T1, Rat DNA polymerase β (Rattus norvegicus, UniProt P06766); test: DNA polymerase assay, rat pol β; format: biochemical; details: for Inhibitory mode: Lineweaver Burk plot
T1 construct: made in house; host or cells: E. coli JMpβ5
Source text: as §1, §2
For pols, poly(dA)/oligo(dT)12-18 (A/T = 2/1) and dTTP were used as the DNA template-primer and nucleotide (i.e., dNTP) substrate, respectively. KA-A analogues (i.e., compounds 1–12) were dissolved in distilled dimethyl sulfoxide (DMSO) at various concentrations and sonicated for 30 sec. Aliquots of 4 μL of sonicated samples were mixed with 16 μL of each enzyme (final amount 0.05 units) in 50 mM Tris-HCl (pH 7.5) containing 1 mM dithiothreitol, 50% glycerol and 0.1 mM EDTA, and kept at 0 °C for 10 min. These inhibitor-enzyme mixtures (8 μl) were added to 16 μL of each of the enzyme standard reaction mixtures, and incubation was carried out at 37 °C for 60 min, except for Taq pol, which was incubated at 74 °C for 60 min. Activity without the inhibitor was considered 100%, and the remaining activity at each concentration of the inhibitor was determined relative to this value. One unit of pol activity was defined as the amount of enzyme that catalyzed the incorporation of 1 nmol of dNTP (i.e., dTTP) into synthetic DNA template-primers in 60 min at 37 °C under the normal reaction conditions for each enzyme.

[3] = target: T2, Human DNA polymerase λ (Homo sapiens, UniProt Q9UGP5); test: DNA polymerase assay, human pol λ; format: biochemical
T2 construct: His tag; made in house; host or cells: E. coli (from the title of the cited method)
T2 sequence (Q9UGP5 1-575): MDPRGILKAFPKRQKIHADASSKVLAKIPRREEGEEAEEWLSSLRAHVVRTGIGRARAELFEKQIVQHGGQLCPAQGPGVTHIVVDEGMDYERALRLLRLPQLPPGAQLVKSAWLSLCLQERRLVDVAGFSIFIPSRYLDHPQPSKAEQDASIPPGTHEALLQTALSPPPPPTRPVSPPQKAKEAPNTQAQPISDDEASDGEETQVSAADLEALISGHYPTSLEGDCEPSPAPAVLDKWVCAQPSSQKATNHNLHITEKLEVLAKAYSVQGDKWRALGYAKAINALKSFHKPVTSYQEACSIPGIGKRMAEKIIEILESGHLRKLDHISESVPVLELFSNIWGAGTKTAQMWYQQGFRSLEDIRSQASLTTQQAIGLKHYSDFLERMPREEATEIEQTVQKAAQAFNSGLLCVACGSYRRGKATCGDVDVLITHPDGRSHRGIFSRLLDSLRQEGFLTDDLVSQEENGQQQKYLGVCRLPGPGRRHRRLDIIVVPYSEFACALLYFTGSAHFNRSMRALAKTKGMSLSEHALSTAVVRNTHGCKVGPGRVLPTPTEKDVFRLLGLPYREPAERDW
Source text: (§3) Pol α was purified from calf thymus by immuno-affinity column chromatography as described by Tamai et al.. Recombinant rat pol β was purified from E. coli JMpβ5 as described by Date et al.. The human pol γ catalytic gene was cloned into pFastBac. Histidine-tagged enzyme was expressed using the BAC-TO-BAC HT Baculovirus Expression System according to the supplier's manual (LIFE TECHNOLOGIES, MD, USA) and purified using ProBoundresin (Invitrogen Japan, Tokyo, Japan). Human pols δ and ε were purified by the nuclear fractionation of human peripheral blood cancer cells (Molt-4) using the second subunit of pols δ and ε-conjugated affinity column chromatography, respectively. Recombinant human pols η and ι tagged with His6 at their C-terminal were expressed in SF9 insect cells using the baculovirus expression system, and were purified as described previously. A truncated form of pol κ (i.e., hDINB1DC) with 6 x His-tags attached at the C-terminal was overproduced using the BAC-to-BAC Baculovirus Expression System kit (GIBCO BRL, MD, USA) and purified as described previously. […]
(§4) For pols, poly(dA)/oligo(dT)12-18 (A/T = 2/1) and dTTP were used as the DNA template-primer and nucleotide (i.e., dNTP) substrate, respectively. […] Activity without the inhibitor was considered 100%, and the remaining activity at each concentration of the inhibitor was determined relative to this value. […]

[4] = target: T3, E. coli DNA polymerase I (Klenow fragment) (Escherichia coli, UniProt P00582); test: DNA polymerase assay, Klenow fragment; format: biochemical
T3 construct: The Klenow fragment of pol I from E. coli; purchased Worthington Biochemical Corp. (Freehold, NJ, USA)
T3 sequence (P00582 324-928): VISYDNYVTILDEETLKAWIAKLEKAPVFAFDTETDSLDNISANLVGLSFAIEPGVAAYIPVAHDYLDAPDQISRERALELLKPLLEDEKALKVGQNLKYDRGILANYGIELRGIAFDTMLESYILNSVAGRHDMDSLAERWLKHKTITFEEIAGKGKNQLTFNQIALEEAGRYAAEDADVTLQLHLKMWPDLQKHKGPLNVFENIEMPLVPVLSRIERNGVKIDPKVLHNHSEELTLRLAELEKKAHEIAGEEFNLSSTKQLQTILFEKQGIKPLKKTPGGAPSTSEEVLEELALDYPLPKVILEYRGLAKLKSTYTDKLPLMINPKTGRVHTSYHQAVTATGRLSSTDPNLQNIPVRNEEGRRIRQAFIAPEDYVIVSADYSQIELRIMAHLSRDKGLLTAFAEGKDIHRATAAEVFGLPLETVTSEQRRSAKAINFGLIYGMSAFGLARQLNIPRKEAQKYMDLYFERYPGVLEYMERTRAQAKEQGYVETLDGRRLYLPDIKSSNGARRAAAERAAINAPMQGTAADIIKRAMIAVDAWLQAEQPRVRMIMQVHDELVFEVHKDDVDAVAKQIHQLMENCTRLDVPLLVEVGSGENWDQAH
Source text: as §3, §4

[5] = target: T4, Bovine Deoxyribonuclease I (Bos taurus, UniProt P00639); test: Deoxyribonuclease I assay; format: biochemical
T4 construct: Bovine pancreas deoxyribonuclease I (DNase I) was obtained from Stratagene Cloning Systems; purchased Stratagene Cloning Systems (La Jolla, CA, USA); host or cells: bovine pancreas
T4 sequence (P00639 23-282): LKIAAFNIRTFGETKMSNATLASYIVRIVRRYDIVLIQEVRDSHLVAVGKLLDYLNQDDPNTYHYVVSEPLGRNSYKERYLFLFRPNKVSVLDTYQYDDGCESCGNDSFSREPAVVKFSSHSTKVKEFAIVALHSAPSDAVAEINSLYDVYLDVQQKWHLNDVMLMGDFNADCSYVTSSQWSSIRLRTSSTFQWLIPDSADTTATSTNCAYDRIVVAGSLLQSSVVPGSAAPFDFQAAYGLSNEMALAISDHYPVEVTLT
Source text: as §3
The primase activity of calf pol α, the activities of T7 RNA polymerase, T4 polynucleotide kinase and bovine DNase I were measured in standard assays according to the manufacturer's specifications as described by Tamiya-Koizumi et al., Nakayama et al., Soltis et al., and Lu and Sakaguchi, respectively.

[6] = test system: double-stranded DNA (dsDNA); test: Thermal transition (Tm) of double-stranded DNA; format: binding; details: compound 11 at 200 μM; data not shown
Experimental: The Tm of dsDNA with an excess amount of compound 11 (200 μM) was measured using a spectrophotometer equipped with a thermoelectric cell holder.

[7] = target: mammalian pols; test: DNA polymerase assays, all mammalian pols tested; format: biochemical; details: all mammalian pols tested (α, β, γ, δ, ε, η, ι, κ, λ); read-out: range of IC50 values for mammalian pols
Source text: as §3, §4

Sequence of Calf DNA polymerase α (Q58D13 whole entry): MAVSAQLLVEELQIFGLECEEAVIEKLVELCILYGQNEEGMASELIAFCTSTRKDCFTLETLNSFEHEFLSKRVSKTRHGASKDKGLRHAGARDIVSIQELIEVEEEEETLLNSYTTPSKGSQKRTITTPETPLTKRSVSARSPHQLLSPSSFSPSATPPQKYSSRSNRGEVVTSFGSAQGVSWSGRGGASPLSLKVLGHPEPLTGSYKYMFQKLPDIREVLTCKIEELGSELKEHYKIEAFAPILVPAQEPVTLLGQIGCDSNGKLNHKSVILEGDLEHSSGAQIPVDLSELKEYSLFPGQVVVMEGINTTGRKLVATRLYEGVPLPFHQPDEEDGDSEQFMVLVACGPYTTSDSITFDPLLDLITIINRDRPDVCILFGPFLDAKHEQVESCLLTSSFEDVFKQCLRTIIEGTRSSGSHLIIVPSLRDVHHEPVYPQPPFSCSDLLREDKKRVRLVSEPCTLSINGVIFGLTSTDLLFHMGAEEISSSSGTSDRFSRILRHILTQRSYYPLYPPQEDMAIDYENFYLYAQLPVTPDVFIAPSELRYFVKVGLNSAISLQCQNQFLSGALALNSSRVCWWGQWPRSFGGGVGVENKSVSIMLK
Sequence of Calf DNA polymerase α (A0AAA9THK8 entry or part of it): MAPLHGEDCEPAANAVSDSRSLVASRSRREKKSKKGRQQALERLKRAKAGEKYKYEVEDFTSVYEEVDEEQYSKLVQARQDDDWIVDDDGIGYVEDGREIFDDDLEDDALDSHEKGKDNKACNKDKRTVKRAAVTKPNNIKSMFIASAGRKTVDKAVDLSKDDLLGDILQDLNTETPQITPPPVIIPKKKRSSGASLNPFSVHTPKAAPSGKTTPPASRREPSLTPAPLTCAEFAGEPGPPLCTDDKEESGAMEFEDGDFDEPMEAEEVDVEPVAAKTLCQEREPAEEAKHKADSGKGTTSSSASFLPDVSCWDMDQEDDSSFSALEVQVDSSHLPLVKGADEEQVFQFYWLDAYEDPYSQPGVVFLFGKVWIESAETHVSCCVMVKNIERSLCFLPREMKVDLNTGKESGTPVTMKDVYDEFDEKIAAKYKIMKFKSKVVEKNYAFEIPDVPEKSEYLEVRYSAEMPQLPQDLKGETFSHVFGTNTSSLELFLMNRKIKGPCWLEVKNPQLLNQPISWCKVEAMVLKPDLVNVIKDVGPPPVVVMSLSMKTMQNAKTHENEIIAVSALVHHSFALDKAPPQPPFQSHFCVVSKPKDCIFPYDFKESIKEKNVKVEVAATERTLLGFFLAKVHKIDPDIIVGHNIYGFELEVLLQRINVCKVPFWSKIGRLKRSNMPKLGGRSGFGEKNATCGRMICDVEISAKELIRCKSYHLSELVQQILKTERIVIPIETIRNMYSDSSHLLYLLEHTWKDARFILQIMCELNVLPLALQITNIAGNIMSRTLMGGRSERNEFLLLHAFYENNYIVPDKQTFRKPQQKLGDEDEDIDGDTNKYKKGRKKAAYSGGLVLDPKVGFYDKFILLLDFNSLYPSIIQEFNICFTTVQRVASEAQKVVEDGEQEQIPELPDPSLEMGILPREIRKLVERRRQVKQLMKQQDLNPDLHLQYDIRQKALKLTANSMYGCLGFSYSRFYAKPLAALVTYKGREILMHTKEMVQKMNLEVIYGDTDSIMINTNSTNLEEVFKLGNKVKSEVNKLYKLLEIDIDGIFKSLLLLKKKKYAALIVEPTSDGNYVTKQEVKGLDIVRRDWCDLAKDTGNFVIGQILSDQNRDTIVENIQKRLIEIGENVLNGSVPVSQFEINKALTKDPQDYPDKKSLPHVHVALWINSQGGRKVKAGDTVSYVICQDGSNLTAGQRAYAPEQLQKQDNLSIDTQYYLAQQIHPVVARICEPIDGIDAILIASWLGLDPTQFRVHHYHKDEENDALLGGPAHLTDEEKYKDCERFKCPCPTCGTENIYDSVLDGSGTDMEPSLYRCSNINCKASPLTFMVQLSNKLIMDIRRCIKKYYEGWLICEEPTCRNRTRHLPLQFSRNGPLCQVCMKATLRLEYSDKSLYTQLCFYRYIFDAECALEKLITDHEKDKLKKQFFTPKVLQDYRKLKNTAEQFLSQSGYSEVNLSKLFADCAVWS
Sequence of Calf DNA polymerase α (A0JNF4 entry or part of it, further chain): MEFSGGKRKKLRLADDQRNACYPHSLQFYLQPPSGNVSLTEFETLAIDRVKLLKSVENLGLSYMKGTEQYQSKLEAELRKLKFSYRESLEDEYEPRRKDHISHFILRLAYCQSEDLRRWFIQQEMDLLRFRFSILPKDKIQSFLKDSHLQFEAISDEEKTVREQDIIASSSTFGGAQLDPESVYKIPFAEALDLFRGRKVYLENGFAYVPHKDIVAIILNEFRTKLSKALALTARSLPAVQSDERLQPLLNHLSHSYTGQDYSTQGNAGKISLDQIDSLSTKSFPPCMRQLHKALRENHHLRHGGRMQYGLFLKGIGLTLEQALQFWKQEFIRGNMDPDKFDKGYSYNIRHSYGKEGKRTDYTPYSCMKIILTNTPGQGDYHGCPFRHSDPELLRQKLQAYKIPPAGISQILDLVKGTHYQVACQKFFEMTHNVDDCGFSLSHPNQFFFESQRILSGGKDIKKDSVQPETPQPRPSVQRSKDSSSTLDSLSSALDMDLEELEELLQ
Sequence of Calf DNA polymerase α (A0A3Q1MF00 entry or part of it, further chain): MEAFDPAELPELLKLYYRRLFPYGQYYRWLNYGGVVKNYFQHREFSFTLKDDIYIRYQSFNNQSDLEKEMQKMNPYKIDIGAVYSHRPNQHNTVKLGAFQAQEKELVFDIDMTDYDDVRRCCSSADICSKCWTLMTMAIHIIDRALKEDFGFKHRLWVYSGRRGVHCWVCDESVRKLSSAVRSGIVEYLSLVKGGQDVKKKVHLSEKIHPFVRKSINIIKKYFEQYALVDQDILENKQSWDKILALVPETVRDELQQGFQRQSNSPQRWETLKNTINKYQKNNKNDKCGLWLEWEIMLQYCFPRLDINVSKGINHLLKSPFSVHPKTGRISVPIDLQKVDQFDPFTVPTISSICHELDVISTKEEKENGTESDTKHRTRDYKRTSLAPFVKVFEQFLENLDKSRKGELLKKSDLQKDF

SMILES: CC1=CC[C@H]2C(C)(C)CCC[C@]2(C)[C@H]1CCCCCCCCCCCCCCCCC(=O)O (relative stereo) [compound 11, (1S*,4aS*,8aS*)-17-(1,4,4a,5,6,7,8,8a-octahydro-2,5,5,8a-tetramethylnaphthalen-1-yl)heptadecanoic acid]
- Inhibitory effect on pol α compared with KA-A ([1]; 10 and 100 μM of compound (Figure 2A)): strongest inhibitory effect
- IC50 ([1]; poly(dA)/oligo(dT)12-18 and dTTP, 0.05 units enzyme, read-out: IC50 values): 4.21 ± 0.21 µM
- Relative activity of pol β ([2]; 10 μM compound 11): 15.5 ± 0.78%
- Relative activity of pol β ([2]; 10 μM compound 11 + 50 μM poly (rC)): 15.2 ± 0.74%
- Relative activity of pol β ([2]; 10 μM compound 11 + 200 μg/ml BSA): 15.9 ± 1.1%
- Relative activity of pol β ([2]; 10 μM compound 11 + 0.05 % NP-40): 96.1 ± 7.6%
- Relative activity of pol β ([2]; 10 μM compound 11 + 0.1 % NP-40): 100 ± 8.8%
- Relative activity of pol β ([2]; 100 μM compound 11): 3.2 ± 0.16%
- Relative activity of pol β ([2]; 100 μM compound 11 + 50 μM poly (rC)): 3.1 ± 0.15%
- Relative activity of pol β ([2]; 100 μM compound 11 + 200 μg/ml BSA): 3.3 ± 0.19%
- Relative activity of pol β ([2]; 100 μM compound 11 + 0.05 % NP-40): 62.5 ± 4.1%
- Relative activity of pol β ([2]; 100 μM compound 11 + 0.1 % NP-40): 95.0 ± 7.6%
- Inhibitory effect on pol β compared with KA-A ([2]; 10 and 100 μM of compound (Figure 2B)): strongest inhibitory effect
- Ki ([2]; DNA template-primer poly(dA)/oligo(dT)12-18, Dixon plot): 1.96 µM
- Vmax ([2]; DNA template-primer poly(dA)/oligo(dT)12-18, unchanged at 0-9 μM compound 11): 111 pmol/h
- fold stronger pol β inhibitor than dideoxyTTP ([2]; comparison with dideoxyTTP): 4 fold
- Ki ([2]; nucleotide substrate dTTP, Dixon plot): 2.36 µM
- Vmax ([2]; nucleotide substrate dTTP, unchanged at 0-9 μM compound 11): 62.5 pmol/h
- IC50 ([2]; poly(dA)/oligo(dT)12-18 and dTTP, 0.05 units enzyme): 5.5 ± 0.28 µM
- Inhibitory mode ([2]; with respect to DNA template-primer): Competitive
- Inhibitory mode ([2]; with respect to dNTP substrate): Competitive
- IC50 [3]: 4.67 ± 0.23 µM
- Kinetic mode of inhibition ([3]; with respect to both the DNA template-primer and the dNTP substrate): competitive
- IC50 [4]: > 200 µM
- IC50 [5]: > 200 µM
- Thermal transition of Tm of dsDNA [6]: no thermal transition of Tm was observed
- IC50 [7]: 3.22 to 8.76 µM

Reference: article PMC6253949, “The Inhibitory Action of Kohamaic Acid A Derivatives on Mammalian DNA Polymerase β” (Molecules, 2008)
